Data: patent US20090143454A1, “Pyrazoline Derivatives and Their Use As Pesticides” (BAYER CROPSCIENCE AG, priority 2001, published 2009)

Columns and labels:
Type in all cases: in vivo
[1] = test system: Heliothis virescens caterpillars; test: Heliothis virescens test; conditions: 500 ppm, soyabean shoots dipped
Protocol: (§1) To produce a suitable preparation of active compound, 1 part by weight of active compound is mixed with the stated amounts of solvent and emulsifier, and the concentrate is diluted with emulsifier-containing water to the desired concentration.
Soyabean shoots (Glycine max) are treated by being dipped into the preparation of active compound of the desired concentration and are populated with Heliothis virescens caterpillars while the leaves are still moist.
(§2) After the desired period of time, the kill in % is determined. 100% means that all caterpillars have been killed; 0% means that none of the caterpillars have been killed.

[2] = test system: larvae of the mustard beetle (Phaedon cochleariae); test: Phaedon larvae test; conditions: 168 h, cabbage leaves dipped, after 7 d, read-out: Kill rate in % after 7 d
Protocol: To produce a suitable preparation of active compound, 1 part by weight of active compound is mixed with the stated amounts of solvent and emulsifier, and the concentrate is diluted with emulsifier-containing water to the desired concentration. Cabbage leaves (Brassica oleracea) are treated by being dipped into the preparation of active compound of the desired concentration and are populated with larvae of the mustard beetle (Phaedon cochleariae) while the leaves are still moist.

[3] = test system: caterpillars of the diamond back moth (Plutella xylostella); test: Plutella test; conditions: 500 ppm, cabbage leaves dipped
Protocol: as §1
Cabbage leaves (Brassica oleracea) are treated by being dipped into the preparation of active compound of the desired concentration and are populated with caterpillars of the diamond back moth (Plutella xylostella) while the leaves are still moist.
as §2

[4] = test system: caterpillars of the army worm (Spodoptera frugiperda); test: Spodoptera frugiperda test; conditions: 168 h, cabbage leaves dipped, after 7 d, read-out: Kill rate in % after 7 d
Protocol: as §1
Cabbage leaves (Brassica oleracea) are treated by being dipped into the preparation of active compound of the desired concentration and are populated with caterpillars of the army worm (Spodoptera frugiperda) while the leaves are still moist.
as §2

[5] = test system: Heliothis virescens larvae; test: Test for persistency: Heliothis virescens; conditions: 20 ppm, cotton plants sprayed
Protocol: as §1
Cotton plants (Gossypium hirsutum) are sprayed with a preparation of active compound of the desired concentration. After the stated number of days, Heliothis virescens larvae are, in infection chambers, placed on the treated leaves.
as §2

[6] = test system: larvae of the army worm (Spodoptera frugiperda); test: Test for persistency: Spodoptera frugiperda; conditions: 20 ppm, cotton plants sprayed
Protocol: as §1
Cotton plants (Gossypium hirsutum) are sprayed with a preparation of active compound of the desired concentration. After the stated number of days, larvae of the army worm (Spodoptera frugiperda) are, in infection chambers, placed on the treated leaves.
as §2

Lucilia cuprina larvae = test: Blowfly larvae test/development-inhibitory action; conditions: after 14 d
Protocol: (§3) 20 mg of active compound are dissolved in 1 ml of dimethyl sulphoxide. More dilute concentrations are prepared by dilution with distilled water.
About 20 Lucilia cuprina larvae are introduced into a test tube which contains about 1 cm^3 of horsemeat and 0.5 ml of the preparation of active compound to be tested. The activity of the preparation of active compound is determined after 24 and 48 hours. The test tubes are transferred into a beaker whose bottom is covered with sand. After a further 2 days, the test tubes are removed and the pupae are counted.
The activity of the preparation of active compound is assessed using the number of flies that have hatched after 1.5 times the development period of an untreated control. 100% means that none of the flies have hatched; 0% means that all of the flies have hatched normally.

Periplaneta americana = test: Cockroach test; conditions: dipped 1 minute, after 7 days
Protocol: as §3
4 test animals are dipped for 1 minute into the preparation of active compound to be tested. After transfer into a plastic beaker and storage for 7 days in an air-conditioned room the killing rate is determined. 100% means, that all cockroaches have been killed, 0% means, that none of the cockroaches have been killed.

N#Cc1cnn(C2CN(C(=O)Nc3ccc(OC(F)(F)F)cc3)N=C2c2ccc(Cl)cc2)c1 (stereo not shown) [drawing 38]
Kill rate in % after 7 d [1]: 100%

N#Cc1cnn(C2CN(C(=O)Nc3ccc(C(F)(F)F)cc3)N=C2c2ccc(Cl)cc2)c1 (stereo not shown) [drawing 39]
Kill rate in % after 7 d [1]: 100%

N#Cc1cnn(C2CN(C(=O)Nc3ccc(Cl)cc3)N=C2c2ccc(Cl)cc2)c1 (stereo not shown) [drawing 40]
Kill rate in % after 7 d [1]: 100%

N#Cc1cnn(C2CN(C(=O)Nc3ccc(SC(F)(F)F)cc3)N=C2c2ccc(Cl)cc2)c1 (stereo not shown) [drawing 41]
Kill rate in % after 7 d [1]: 100%

N#Cc1cnn(C2CN(C(=O)Nc3ccc(OC(F)(F)F)cc3)N=C2c2ccc(Cl)cc2)c1 (stereo not shown) [drawing 43]
pest or weed control at 500 ppm [2]: 100%

N#Cc1cnn(C2CN(C(=O)Nc3ccc(Cl)cc3)N=C2c2ccc(Cl)cc2)c1 (stereo not shown) [drawing 44]
pest or weed control at 500 ppm [2]: 100%

COC(=O)N(C(=O)N1CC(n2cc(C#N)cn2)C(c2ccc(Cl)cc2)=N1)c1ccc(OC(F)(F)F)cc1 (stereo not shown) [drawing 45]
pest or weed control at 500 ppm [2]: 100%

N#CCN(C(=O)N1CC(n2cc(C#N)cn2)C(c2ccc(Cl)cc2)=N1)c1ccc(OC(F)(F)F)cc1 (stereo not shown) [drawing 46]
pest or weed control at 500 ppm [2]: 100%

CCOC(=O)N(C(=O)N1CC(n2cc(C#N)cn2)C(c2ccc(Cl)cc2)=N1)c1ccc(OC(F)(F)F)cc1 (stereo not shown) [drawing 47]
pest or weed control at 500 ppm [2]: 100%

N#Cc1cnn(C2CN(C(=O)Nc3ccc(OC(F)(F)F)cc3)N=C2c2ccc(Br)cc2)c1 (stereo not shown) [drawing 49]
pest or weed control at 500 ppm [2]: 100%

N#Cc1cnn(C2CN(C(=O)Nc3ccc(SC(F)(F)F)cc3)N=C2c2ccc(Br)cc2)c1 (stereo not shown) [drawing 50]
pest or weed control at 500 ppm [2]: 100%

N#Cc1cnn(C2CN(C(=O)Nc3ccc(OC(F)(F)F)cc3)N=C2c2ccc(I)cc2)c1 (stereo not shown) [drawing 51]
pest or weed control at 500 ppm [2]: 100%

N#Cc1cnn(C2CN(C(=O)Nc3ccc(S(=O)(=O)C(F)(F)F)cc3)N=C2c2ccc(Cl)cc2)c1 (stereo not shown) [drawing 52]
pest or weed control at 500 ppm [2]: 100%

N#Cc1cnn(C2CN(C(=O)Nc3ccc(OC(F)(F)F)cc3)N=C2c2ccc(Cl)cc2)c1 (stereo not shown) [drawing 53]
Kill rate in % after 7 d [3]: 100%

N#Cc1cnn(C2CN(C(=O)Nc3ccc(C(F)(F)F)cc3)N=C2c2ccc(Cl)cc2)c1 (stereo not shown) [drawing 54]
Kill rate in % after 7 d [3]: 100%

N#Cc1cnn(C2CN(C(=O)Nc3ccc(Cl)cc3)N=C2c2ccc(Cl)cc2)c1 (stereo not shown) [drawing 55]
Kill rate in % after 7 d [3]: 100%

N#Cc1cnn(C2CN(C(=O)Nc3ccc(C(F)(F)F)cc3)N=C2c2ccc(Cl)cc2)c1 (stereo not shown) [drawing 62]
pest or weed control at 500 ppm [4]: 100%

N#CCN(C(=O)N1CC(n2cc(C#N)cn2)C(c2ccc(Cl)cc2)=N1)c1ccc(OC(F)(F)F)cc1 (stereo not shown) [drawing 63]
pest or weed control at 500 ppm [4]: 100%

CCOC(=O)N(C(=O)N1CC(n2cc(C#N)cn2)C(c2ccc(Cl)cc2)=N1)c1ccc(OC(F)(F)F)cc1 (stereo not shown) [drawing 64]
pest or weed control at 500 ppm [4]: 100%

N#Cc1cnn(C2CN(C(=O)Nc3ccc(OC(F)(F)F)cc3)N=C2c2ccc(Br)cc2)c1 (stereo not shown) [drawing 65]
pest or weed control at 500 ppm [4]: 100%

N#Cc1cnn(C2CN(C(=O)Nc3ccc(SC(F)(F)F)cc3)N=C2c2ccc(Br)cc2)c1 (stereo not shown) [drawing 66]
pest or weed control at 500 ppm [4]: 100%

N#Cc1cnn(C2CN(C(=O)Nc3ccc(S(=O)(=O)C(F)(F)F)cc3)N=C2c2ccc(Br)cc2)c1 (stereo not shown) [drawing 67]
pest or weed control at 500 ppm [4]: 100%

N#Cc1cnn(C2CN(C(=O)Nc3ccc(OC(F)(F)F)cc3)N=C2c2ccc(I)cc2)c1 (stereo not shown) [drawing 68]
pest or weed control at 500 ppm [4]: 100%

N#Cc1cnn(C2CN(C(=O)Nc3ccc(SC(F)(F)F)cc3)N=C2c2ccc(I)cc2)c1 (stereo not shown) [drawing 69]
pest or weed control at 500 ppm [4]: 100%

N#Cc1cnn(C2CN(C(=O)Nc3ccc(OC(F)(F)F)cc3)N=C2c2ccc(SC(F)(F)F)cc2)c1 (stereo not shown) [drawing 70]
pest or weed control at 500 ppm [4]: 100%

N#Cc1cnn(C2CN(C(=O)Nc3ccc(SC(F)(F)F)cc3)N=C2c2ccc(SC(F)(F)F)cc2)c1 (stereo not shown) [drawing 71]
pest or weed control at 500 ppm [4]: 100%

N#Cc1cnn(C2CN(C(=O)Nc3ccc(OC(F)(F)F)cc3)N=C2c2ccc(Cl)cc2)c1 (stereo not shown) [drawing 72]
Kill rate in % 7 d after infection ([5]; infection after 5 d): 100% | Kill rate in % 7 d after infection ([5]; infection after 12 d): 90% | Kill rate in % 7 d after infection ([5]; infection after 19 d): 100%

N#Cc1cnn(C2CN(C(=O)Nc3ccc(C(F)(F)F)cc3)N=C2c2ccc(Cl)cc2)c1 (stereo not shown) [drawing 73]
Kill rate in % 7 d after infection ([5]; infection after 5 d): 100% | Kill rate in % 7 d after infection ([5]; infection after 12 d): 100% | Kill rate in % 7 d after infection ([5]; infection after 19 d): 90%

N#Cc1cnn(C2CN(C(=O)Nc3ccc(SC(F)(F)F)cc3)N=C2c2ccc(Cl)cc2)c1 (stereo not shown) [drawing 74]
Kill rate in % 7 d after infection ([5]; infection after 5 d): 80% | Kill rate in % 7 d after infection ([5]; infection after 12 d): 70% | Kill rate in % 7 d after infection ([5]; infection after 19 d): 90%

N#Cc1cnn(C2CN(C(=O)Nc3ccc(OC(F)(F)F)cc3)N=C2c2ccc(Cl)cc2)c1 (stereo not shown) [drawing 75]
Kill rate in % 7 d after infection ([6]; infection after 5 d): infection after: 5^d 12^d 19^d 100 100 100% | Kill rate in % 7 d after infection ([6]; infection after 12 d): infection after: 5^d 12^d 19^d 100 100 100% | Kill rate in % 7 d after infection ([6]; infection after 19 d): infection after: 5^d 12^d 19^d 100 100 100%

N#Cc1cnn(C2CN(C(=O)Nc3ccc(C(F)(F)F)cc3)N=C2c2ccc(Cl)cc2)c1 (stereo not shown) [drawing 76]
Kill rate in % 7 d after infection ([6]; infection after 5 d): infection after: 5^d 12^d 19^d 100 100 100% | Kill rate in % 7 d after infection ([6]; infection after 12 d): infection after: 5^d 12^d 19^d 100 100 100% | Kill rate in % 7 d after infection ([6]; infection after 19 d): infection after: 5^d 12^d 19^d 100 100 100%

N#Cc1cnn(C2CN(C(=O)Nc3ccc(SC(F)(F)F)cc3)N=C2c2ccc(Cl)cc2)c1 (stereo not shown) [drawing 77]
Kill rate in % 7 d after infection ([6]; infection after 5 d): 90% | Kill rate in % 7 d after infection ([6]; infection after 12 d): 100% | Kill rate in % 7 d after infection ([6]; infection after 19 d): 100%

N#Cc1cnn(C2CN(C(=O)Nc3ccc(C(F)(F)F)cc3)N=C2c2ccc(Cl)cc2)c1 (stereo not shown) [drawing 86]
activity/kill rate in % after 14 d (Lucilia cuprina larvae; 20 ppm): 100/100% | activity/kill rate in % after 14 d (Lucilia cuprina larvae; 100 ppm): 100/100%

N#Cc1cnn(C2CN(C(=O)Nc3ccc(Cl)cc3)N=C2c2ccc(Cl)cc2)c1 (stereo not shown) [drawing 87]
activity/kill rate in % after 14 d (Lucilia cuprina larvae; 20 ppm): 100/100% | activity/kill rate in % after 14 d (Lucilia cuprina larvae; 100 ppm): 100/100%

N#Cc1cnn(C2CN(C(=O)Nc3ccc(SC(F)(F)F)cc3)N=C2c2ccc(Cl)cc2)c1 (stereo not shown) [drawing 88]
activity/kill rate in % after 14 d (Lucilia cuprina larvae; 20 ppm): 100/100% | activity/kill rate in % after 14 d (Lucilia cuprina larvae; 100 ppm): 100/100%

CCOC(=O)N(C(=O)N1CC(n2cc(C#N)cn2)C(c2ccc(Cl)cc2)=N1)c1ccc(OC(F)(F)F)cc1 (stereo not shown) [drawing 89]
activity/kill rate in % after 14 d (Lucilia cuprina larvae; 20 ppm): 100%

N#Cc1cnn(C2CN(C(=O)Nc3ccc([S+]([O-])C(F)(F)F)cc3)N=C2c2ccc(Cl)cc2)c1 (stereo not shown) [drawing 90]
activity/kill rate in % after 14 d (Lucilia cuprina larvae; 20 ppm): 100/100% | activity/kill rate in % after 14 d (Lucilia cuprina larvae; 100 ppm): 100/100%

N#Cc1cnn(C2CN(C(=O)Nc3ccc(OC(F)(F)F)cc3)N=C2c2ccc(Cl)cc2)c1 (stereo not shown) [drawing 97]
activity/kill rate in % (Periplaneta americana; 100 ppm): 25%

N#Cc1cnn(C2CN(C(=O)Nc3ccc(C(F)(F)F)cc3)N=C2c2ccc(Cl)cc2)c1 (stereo not shown) [drawing 98]
activity/kill rate in % (Periplaneta americana; 100 ppm): 50%

COC(=O)N(C(=O)N1CC(n2cc(C#N)cn2)C(c2ccc(Cl)cc2)=N1)c1ccc(OC(F)(F)F)cc1 (stereo not shown) [drawing 99]
activity/kill rate in % (Periplaneta americana; 20 ppm): 25% | activity/kill rate in % (Periplaneta americana; 100 ppm): 100%

CCOC(=O)N(C(=O)N1CC(n2cc(C#N)cn2)C(c2ccc(Cl)cc2)=N1)c1ccc(OC(F)(F)F)cc1 (stereo not shown) [drawing 100]
activity/kill rate in % (Periplaneta americana; 20 ppm): 25% | activity/kill rate in % (Periplaneta americana; 100 ppm): 75%

N#Cc1cnn(C2CN(C(=O)Nc3ccc(OC(F)(F)F)cc3)N=C2c2ccc(Br)cc2)c1 (stereo not shown) [drawing 101]
activity/kill rate in % (Periplaneta americana; 100 ppm): 25%

N#Cc1cnn(C2CN(C(=O)Nc3ccc(OC(F)(F)F)cc3)N=C2c2ccc(I)cc2)c1 (stereo not shown) [drawing 102]
activity/kill rate in % (Periplaneta americana; 100 ppm): 50%
